Our source for the EC50 and solubility values is patent publication US20250382344A1, “Soluble GLP1/GIP/NPY2 Receptor Triple Agonists” (Boehringer Ingelheim International GmH, priority 2024, published 2025).

One data set addresses T1, hNPY2R (Homo sapiens, UniProt P49146).
T1 construct: expressed in transfected cells; host or cells: HEK-293 CRE-luciferase reporter cells
T1 sequence (P49146 1-381): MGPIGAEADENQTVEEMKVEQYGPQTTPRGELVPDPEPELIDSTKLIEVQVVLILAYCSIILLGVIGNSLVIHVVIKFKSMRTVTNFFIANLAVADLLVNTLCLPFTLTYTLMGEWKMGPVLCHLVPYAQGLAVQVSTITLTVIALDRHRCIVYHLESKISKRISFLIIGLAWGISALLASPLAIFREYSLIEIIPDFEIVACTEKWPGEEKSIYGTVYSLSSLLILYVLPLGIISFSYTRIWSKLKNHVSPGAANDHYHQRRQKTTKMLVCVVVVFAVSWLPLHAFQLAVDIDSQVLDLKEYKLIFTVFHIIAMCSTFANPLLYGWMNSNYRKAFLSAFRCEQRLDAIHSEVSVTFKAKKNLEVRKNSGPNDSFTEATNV
Put plainly: hNPY2R CreLuc assay in 0.5% and 100% plasma (HEK-293 CRE-luciferase reporter cells). Type of data set: cell-based. As to conditions: 100% human plasma, HEK-293 reporter cells, read-out: hNPY2R 100% hP. (In general: Reporter assays use an easily measured gene product as a stand-in for the process of interest.)

The target in the next data set is T2, hGIPR (Homo sapiens, UniProt P48546).
T2 construct: expressed in transfected cells; host or cells: CHO CRE-luciferase reporter cells
T2 sequence (P48546 22-466): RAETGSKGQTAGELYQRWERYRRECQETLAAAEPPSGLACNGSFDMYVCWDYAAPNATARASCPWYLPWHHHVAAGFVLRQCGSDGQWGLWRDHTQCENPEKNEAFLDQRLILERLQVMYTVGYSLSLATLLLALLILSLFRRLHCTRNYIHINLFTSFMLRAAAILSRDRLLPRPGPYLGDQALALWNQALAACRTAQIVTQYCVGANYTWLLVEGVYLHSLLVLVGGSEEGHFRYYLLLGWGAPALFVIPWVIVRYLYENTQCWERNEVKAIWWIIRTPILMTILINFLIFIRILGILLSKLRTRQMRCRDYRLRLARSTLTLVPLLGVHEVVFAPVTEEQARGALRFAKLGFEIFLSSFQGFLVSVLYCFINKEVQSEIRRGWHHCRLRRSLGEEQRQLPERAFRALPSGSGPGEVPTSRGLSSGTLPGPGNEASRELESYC
Put plainly: hGIPR CreLuc assay in 0.5% and 100% plasma (CHO CRE-luciferase reporter cells). The class given is cell-based.

A short description of data set [1]: Solubility in 0.1 M phosphate buffer at pH 7. The class given is physicochemical. As to conditions: 0.1 M phosphate buffer at pH 7, 10 mg/mL final peptide concentration, shaking 2 hours at room temperature, peptides as TFA-salts; measured sample pH 6.5-7.0.
A further data set has as its target T3, hGLP1R (Homo sapiens, UniProt P43220).
T3 construct: expressed in transfected cells; host or cells: HEK-293 CRE-luciferase reporter cells
Put plainly: hGLP1R CreLuc assay in 0.5% and 100% plasma (HEK-293 CRE-luciferase reporter cells). As to conditions: HEK-293 reporter cells. The class given is cell-based.

Where [2] appears, read: 0.5% human plasma, read-out: hGIPR 0.5% hP.
The mark [3] stands for this setting: 0.5% human plasma, read-out: hGLP1R 0.5% hP.

One may read the solubility as the dissolved amount per volume that the medium holds.

Molecules are shown by their SMILES. pEC50: −log10 of the molar value. Where two headings read alike, the source gives them in different places.

T3 sequence (P43220 24-463): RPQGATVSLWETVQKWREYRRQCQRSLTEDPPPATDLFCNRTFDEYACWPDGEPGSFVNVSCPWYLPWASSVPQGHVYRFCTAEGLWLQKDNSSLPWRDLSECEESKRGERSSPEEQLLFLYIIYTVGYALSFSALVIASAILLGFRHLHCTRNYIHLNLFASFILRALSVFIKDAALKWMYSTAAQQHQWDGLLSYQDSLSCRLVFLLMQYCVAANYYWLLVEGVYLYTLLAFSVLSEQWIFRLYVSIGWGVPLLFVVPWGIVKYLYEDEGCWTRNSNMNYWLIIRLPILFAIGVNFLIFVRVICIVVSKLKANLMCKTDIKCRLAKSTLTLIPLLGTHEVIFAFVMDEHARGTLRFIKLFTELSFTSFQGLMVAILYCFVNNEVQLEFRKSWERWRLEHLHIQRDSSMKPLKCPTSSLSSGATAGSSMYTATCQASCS

Take `CC[C@H](C)[C@H](NC(=O)[C@H](CC(C)C)NC(=O)[C@H](Cc1c[nH]cn1)NC(=O)[C@H](CCCNC(=N)N)NC(=O)[C@@H](NC(=O)[C@H](Cc1ccccc1)NC(=O)[C@H](CCC(=O)O)NC(=O)C(C)(C)NC(=O)[C@H](CCC(N)=O)NC(=O)[C@H](C)NC(=O)[C@H](CCC(N)=O)NC(=O)[C@H](CCCCN)NC(=O)[C@H](CCC(=O)O)NC(=O)[C@H](CC(C)C)NC(=O)C(C)(C)NC(=O)[C@@H](NC(=O)[C@H](CO)NC(=O)[C@H](Cc1ccc(O)cc1)NC(=O)[C@H](CC(=O)O)NC(=O)[C@H](CO)NC(=O)[C@@H](NC(=O)[C@H](Cc1ccccc1)NC(=O)[C@@H](NC(=O)CNC(=O)[C@H](CCC(=O)O)NC(=O)C(C)(C)NC(=O)[C@@H](N)Cc1ccc(O)cc1)[C@@H](C)O)[C@@H](C)O)[C@@H](C)CC)C(C)C)C(=O)N[C@@H](CC(N)=O)C(=O)N[C@@H](CCCCNC(=O)COCCOCCNC(=O)COCCOCCNC(=O)CC[C@H](NC(=O)CC[C@H](NC(=O)CC[C@H](NC(=O)CC[C@H](NC(=O)CCCCCCCCCCCCCCCCC(=O)O)C(=O)O)C(=O)O)C(=O)O)C(=O)O)C(=O)NC(C)(C)C(=O)N[C@H](C(=O)N[C@@H](CCCNC(=N)N)C(=O)N[C@@H](CCC(N)=O)C(=O)N[C@@H](CCCNC(=N)N)C(=O)N[C@@H](Cc1ccc(O)cc1)C(N)=O)[C@@H](C)O` [Compound 73, Y-Aib-E-G-T-F-T-S-D-Y-S-I-Aib-L-E-K-Q-A-Q-Aib-E-F-V-R-H-L-I-N-K(1,3)-Aib-T-R-Q-R-Y-NH2.C18DA-gGlu-gGlu-gGlu-gGlu-OEG-OEG(1,2)]: the pEC50 was 6.87 on hNPY2R; 9.40 on hGIPR (setting [2]); 8.23 on hGIPR (100% human plasma, read-out: hGIPR 100% hP); 9.40 on hGLP1R (setting [3]). The solubility at 2 h in data set [1] came out at 4900 µg/mL.

For `CC[C@H](C)[C@H](NC(=O)[C@H](CC(C)C)NC(=O)[C@H](Cc1c[nH]cn1)NC(=O)[C@H](CCCNC(=N)N)NC(=O)[C@@H](NC(=O)[C@H](Cc1ccccc1)NC(=O)[C@H](C)NC(=O)C(C)(C)NC(=O)[C@H](CCC(N)=O)NC(=O)[C@H](C)NC(=O)[C@H](CCC(N)=O)NC(=O)[C@H](CCCCN)NC(=O)[C@H](CCC(=O)O)NC(=O)[C@H](CC(C)C)NC(=O)C(C)(C)NC(=O)[C@@H](NC(=O)[C@H](CO)NC(=O)[C@H](Cc1ccc(O)cc1)NC(=O)[C@H](CC(=O)O)NC(=O)[C@H](CO)NC(=O)[C@@H](NC(=O)[C@H](Cc1ccccc1)NC(=O)[C@@H](NC(=O)CNC(=O)[C@H](CCC(=O)O)NC(=O)C(C)(C)NC(=O)[C@@H](N)Cc1ccc(O)cc1)[C@@H](C)O)[C@@H](C)O)[C@@H](C)CC)C(C)C)C(=O)N[C@@H](CC(N)=O)C(=O)N[C@@H](CCCCNC(=O)[C@@H](N)CCCNC(=O)CC[C@H](NC(=O)CC[C@H](NC(=O)CC[C@H](NC(=O)CC[C@H](NC(=O)CC[C@H](NC(=O)CC[C@H](NC(=O)CCCCCCCCCCCCCCCCC(=O)O)C(=O)O)C(=O)O)C(=O)O)C(=O)O)C(=O)O)C(=O)O)C(=O)NC(C)(C)C(=O)N[C@H](C(=O)N[C@@H](CCCNC(=N)N)C(=O)N[C@@H](CCC(N)=O)C(=O)N[C@@H](CCCNC(=N)N)C(=O)N[C@@H](Cc1ccc(O)cc1)C(N)=O)[C@@H](C)O` [Compound 87, Y-Aib-E-G-T-F-T-S-D-Y-S-I-Aib-L-E-K-Q-A-Q-Aib-A-F-V-R-H-L-I-N-K(1,3)-Aib-T-R-Q-R-Y-NH2.C18DA-gGlu-gGlu-gGlu-gGlu-gGlu-gGlu-dtOrn(1,2)], the pEC50 is 7.24 on hNPY2R, 9.70 at hGIPR (setting [2]) and 8.77 on hGLP1R (setting [3]). Moreover, the solubility at 2 h in data set [1] is 4900 µg/mL.

On to `CC[C@H](C)[C@H](NC(=O)[C@H](CC(C)C)NC(=O)[C@H](Cc1c[nH]cn1)NC(=O)[C@H](CCCNC(=N)N)NC(=O)[C@@H](NC(=O)[C@H](Cc1ccccc1)NC(=O)[C@H](C)NC(=O)C(C)(C)NC(=O)[C@H](CCC(N)=O)NC(=O)[C@H](C)NC(=O)[C@H](CCC(N)=O)NC(=O)[C@H](CCCCN)NC(=O)[C@H](CCC(=O)O)NC(=O)[C@H](CC(C)C)NC(=O)C(C)(C)NC(=O)[C@@H](NC(=O)[C@H](CO)NC(=O)[C@H](Cc1ccc(O)cc1)NC(=O)[C@H](CC(=O)O)NC(=O)[C@H](CO)NC(=O)[C@@H](NC(=O)[C@H](Cc1ccccc1)NC(=O)[C@@H](NC(=O)CNC(=O)[C@H](CCC(=O)O)NC(=O)C(C)(C)NC(=O)[C@@H](N)Cc1ccc(O)cc1)[C@@H](C)O)[C@@H](C)O)[C@@H](C)CC)C(C)C)C(=O)N[C@@H](CC(N)=O)C(=O)N[C@@H](CCCCNC(=O)[C@@H](N)CCCNC(=O)CC[C@H](NC(=O)CC[C@H](NC(=O)CC[C@H](NC(=O)CC[C@H](NC(=O)CC[C@H](NC(=O)CC[C@H](NC(=O)CCCCCCCCCCCCCCCCCCC(=O)O)C(=O)O)C(=O)O)C(=O)O)C(=O)O)C(=O)O)C(=O)O)C(=O)NC(C)(C)C(=O)N[C@H](C(=O)N[C@@H](CCCNC(=N)N)C(=O)N[C@@H](CCC(N)=O)C(=O)N[C@@H](CCCNC(=N)N)C(=O)N[C@@H](Cc1ccc(O)cc1)C(N)=O)[C@@H](C)O` [Compound 97, Y-Aib-E-G-T-F-T-S-D-Y-S-I-Aib-L-E-K-Q-A-Q-Aib-A-F-V-R-H-L-I-N-K(1,3)-Aib-T-R-Q-R-Y-NH2.C20DA-gGlu-gGlu-gGlu-gGlu-gGlu-gGlu-dtOrn(1,2)], for which the values for the pEC50 on hNPY2R, on hGIPR (setting [2]) and at hGLP1R (setting [3]) were 6.87, 9.22 and 8.42, respectively. Besides, the solubility at 2 h in data set [1] was found to be 4700 µg/mL.

Turning to `CC[C@H](C)[C@H](NC(=O)[C@H](CC(C)C)NC(=O)[C@H](Cc1c[nH]cn1)NC(=O)[C@H](CCCNC(=N)N)NC(=O)[C@@H](NC(=O)[C@H](Cc1ccccc1)NC(=O)[C@H](C)NC(=O)C(C)(C)NC(=O)[C@H](CCC(=O)O)NC(=O)[C@H](C)NC(=O)[C@H](CCC(N)=O)NC(=O)[C@H](CCCCN)NC(=O)[C@H](CCC(=O)O)NC(=O)[C@H](CC(C)C)NC(=O)[C@](C)(CC(C)C)NC(=O)[C@@H](NC(=O)[C@H](CO)NC(=O)[C@H](Cc1ccc(O)cc1)NC(=O)[C@H](CC(=O)O)NC(=O)[C@H](CO)NC(=O)[C@@H](NC(=O)[C@H](Cc1ccccc1)NC(=O)[C@@H](NC(=O)CNC(=O)[C@H](CCC(=O)O)NC(=O)C(C)(C)NC(=O)[C@@H](N)Cc1ccc(O)cc1)[C@@H](C)O)[C@@H](C)O)[C@@H](C)CC)C(C)C)C(=O)N[C@@H](CC(N)=O)C(=O)N[C@@H](CCCCNC(=O)[C@@H](N)CCCCNC(=O)CC[C@H](NC(=O)CC[C@H](NC(=O)CC[C@H](NC(=O)CC[C@H](NC(=O)CC[C@H](NC(=O)CC[C@H](NC(=O)CCCCCCCCCCCCCCCCCCC(=O)O)C(=O)O)C(=O)O)C(=O)O)C(=O)O)C(=O)O)C(=O)O)C(=O)NC(C)(C)C(=O)N[C@H](C(=O)N[C@@H](CCCNC(=N)N)C(=O)N[C@@H](CCC(N)=O)C(=O)N[C@@H](CCCNC(=N)N)C(=O)N[C@@H](Cc1ccc(O)cc1)C(N)=O)[C@@H](C)O` [Compound 103, Y-Aib-E-G-T-F-T-S-D-Y-S-I-aMeL-L-E-K-Q-A-E-Aib-A-F-V-R-H-L-I-N-K(1,3)-Aib-T-R-Q-R-Y-NH2.C20DA-gGlu-gGlu-gGlu-gGlu-gGlu-gGlu-eLys(1,2)], the pEC50 at hNPY2R was 6.88; on hGIPR (setting [2]), 9.70; at hGLP1R (setting [3]) it was 9.40; on hGLP1R (100% human plasma, read-out: hGLP1R 100% hP) it was 9.22. In addition, the solubility at 2 h in data set [1] was 9700 µg/mL.
